Assay results taken from paper PMC8429728, “TNK1 is a ubiquitin-binding and 14-3-3-regulated kinase that can be targeted to block tumor growth” (Nature Communications, 2021).
Like-named read-outs stand apart in the source and are kept apart here.

Experiments:
Assay in all cases: biochemical
Parameters in all cases: Reaction Biology 371-kinase panel at Km ATP, per cent enzyme activity relative to DMSO, single dose in duplicate
Settings in all cases: duplicate measurements, Km ATP
ALK5/TGFBR1 = ALK5/TGFBR1 (Homo sapiens, UniProt P36897)
Experimental: (§1) To assess kinase selectivity, we screened TP-5801 (300 nM) against a panel of 371 kinases in vitro. […] In addition to TNK1, only 7 other kinases were inhibited by more than 90% (Supplementary Fig. 8 and Supplementary Data 2). […] The resulting % Enzyme activity (relative to DMSO controls) were plotted in GraphPad and IC50 values were determined by sigmoidal dose-response (variable slope) curve fits, with a bottom constraint of 0.

CAMK1g = CAMK1g (Homo sapiens, UniProt Q96NX5)
Chain of CAMK1g (Q96NX5 whole entry): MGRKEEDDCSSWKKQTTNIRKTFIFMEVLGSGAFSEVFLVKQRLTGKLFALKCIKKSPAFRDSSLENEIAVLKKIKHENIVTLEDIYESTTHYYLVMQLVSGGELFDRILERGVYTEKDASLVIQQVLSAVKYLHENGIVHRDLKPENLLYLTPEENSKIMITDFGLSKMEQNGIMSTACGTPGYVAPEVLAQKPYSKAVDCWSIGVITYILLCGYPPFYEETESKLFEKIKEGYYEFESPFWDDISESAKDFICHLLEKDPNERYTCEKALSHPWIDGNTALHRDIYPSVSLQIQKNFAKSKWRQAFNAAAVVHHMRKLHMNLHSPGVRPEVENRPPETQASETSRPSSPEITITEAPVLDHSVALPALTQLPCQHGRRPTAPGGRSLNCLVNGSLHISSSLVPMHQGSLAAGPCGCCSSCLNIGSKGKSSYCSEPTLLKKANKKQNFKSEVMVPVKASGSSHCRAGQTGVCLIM
Experimental: as §1

CLK2 = CLK2 (Homo sapiens, UniProt P49760)
Experimental: as §1

COT1/MAP3K8 = COT1/MAP3K8 (Homo sapiens, UniProt P41279)
Chain of COT1/MAP3K8 (P41279 whole entry): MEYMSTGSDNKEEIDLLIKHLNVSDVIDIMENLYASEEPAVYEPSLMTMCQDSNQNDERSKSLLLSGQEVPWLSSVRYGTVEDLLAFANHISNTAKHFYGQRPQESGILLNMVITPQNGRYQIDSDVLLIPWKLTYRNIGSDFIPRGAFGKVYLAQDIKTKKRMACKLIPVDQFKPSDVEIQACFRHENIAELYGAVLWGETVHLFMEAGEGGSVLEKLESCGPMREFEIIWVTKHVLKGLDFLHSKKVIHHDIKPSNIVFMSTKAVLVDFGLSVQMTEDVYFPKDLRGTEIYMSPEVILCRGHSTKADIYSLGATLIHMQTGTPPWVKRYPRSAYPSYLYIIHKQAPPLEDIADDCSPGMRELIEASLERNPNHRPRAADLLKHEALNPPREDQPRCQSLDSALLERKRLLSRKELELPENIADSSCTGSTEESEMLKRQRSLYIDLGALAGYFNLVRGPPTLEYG
Experimental: as §1

EGFR = EGFR (Homo sapiens, UniProt P00533)
Chain of EGFR (P00533 whole entry): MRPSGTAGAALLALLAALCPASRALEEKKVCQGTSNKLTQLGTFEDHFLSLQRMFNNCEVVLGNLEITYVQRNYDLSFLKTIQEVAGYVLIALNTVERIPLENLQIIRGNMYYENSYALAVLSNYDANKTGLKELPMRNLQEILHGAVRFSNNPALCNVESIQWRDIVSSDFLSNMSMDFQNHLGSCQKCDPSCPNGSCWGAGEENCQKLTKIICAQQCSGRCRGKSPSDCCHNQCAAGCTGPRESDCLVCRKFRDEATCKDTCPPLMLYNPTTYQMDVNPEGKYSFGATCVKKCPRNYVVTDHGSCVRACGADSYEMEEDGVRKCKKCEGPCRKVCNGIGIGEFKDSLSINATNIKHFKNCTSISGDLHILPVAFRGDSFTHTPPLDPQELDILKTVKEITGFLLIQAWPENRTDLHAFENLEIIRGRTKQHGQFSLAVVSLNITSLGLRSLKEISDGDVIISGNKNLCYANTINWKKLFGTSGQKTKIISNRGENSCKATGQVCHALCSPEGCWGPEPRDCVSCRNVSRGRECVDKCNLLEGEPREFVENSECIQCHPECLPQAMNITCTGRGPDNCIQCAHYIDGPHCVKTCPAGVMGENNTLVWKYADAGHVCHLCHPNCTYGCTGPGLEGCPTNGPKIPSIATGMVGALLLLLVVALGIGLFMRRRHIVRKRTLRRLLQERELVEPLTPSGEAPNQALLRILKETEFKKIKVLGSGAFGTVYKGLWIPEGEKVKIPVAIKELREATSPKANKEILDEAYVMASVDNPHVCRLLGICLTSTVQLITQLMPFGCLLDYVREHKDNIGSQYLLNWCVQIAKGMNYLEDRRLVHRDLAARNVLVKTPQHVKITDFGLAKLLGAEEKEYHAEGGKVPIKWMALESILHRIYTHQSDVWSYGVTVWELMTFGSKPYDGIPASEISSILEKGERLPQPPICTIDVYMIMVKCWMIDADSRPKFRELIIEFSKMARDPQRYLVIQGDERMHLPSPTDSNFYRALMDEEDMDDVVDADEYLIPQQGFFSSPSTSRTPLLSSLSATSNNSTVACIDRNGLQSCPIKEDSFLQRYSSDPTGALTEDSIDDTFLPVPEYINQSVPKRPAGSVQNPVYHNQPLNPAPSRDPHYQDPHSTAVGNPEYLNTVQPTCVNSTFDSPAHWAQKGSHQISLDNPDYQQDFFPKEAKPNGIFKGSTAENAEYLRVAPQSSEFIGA
Experimental: as §1

GRK4 = GRK4 (Homo sapiens, UniProt P32298)
Experimental: as §1

GSK3a = GSK3a (Homo sapiens, UniProt P49840)
Chain of GSK3a (P49840 whole entry): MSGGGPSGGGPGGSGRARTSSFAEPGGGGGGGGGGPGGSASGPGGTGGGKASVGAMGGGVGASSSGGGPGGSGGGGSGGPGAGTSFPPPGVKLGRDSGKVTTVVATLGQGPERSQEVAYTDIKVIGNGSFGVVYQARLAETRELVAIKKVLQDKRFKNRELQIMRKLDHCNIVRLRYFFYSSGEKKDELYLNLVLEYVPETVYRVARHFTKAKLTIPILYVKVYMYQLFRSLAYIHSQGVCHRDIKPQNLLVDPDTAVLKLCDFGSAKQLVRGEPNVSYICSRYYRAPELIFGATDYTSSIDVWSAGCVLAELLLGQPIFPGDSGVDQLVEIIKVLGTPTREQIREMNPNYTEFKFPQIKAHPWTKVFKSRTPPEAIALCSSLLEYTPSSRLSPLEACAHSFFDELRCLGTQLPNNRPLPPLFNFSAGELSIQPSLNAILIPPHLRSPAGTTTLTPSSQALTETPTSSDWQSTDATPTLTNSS
Experimental: as §1

HIPK4 = HIPK4 (Homo sapiens, UniProt Q8NE63)
Experimental: as §1

JAK2 = JAK2 (Homo sapiens, UniProt O60674)
Chain of JAK2 (O60674 whole entry): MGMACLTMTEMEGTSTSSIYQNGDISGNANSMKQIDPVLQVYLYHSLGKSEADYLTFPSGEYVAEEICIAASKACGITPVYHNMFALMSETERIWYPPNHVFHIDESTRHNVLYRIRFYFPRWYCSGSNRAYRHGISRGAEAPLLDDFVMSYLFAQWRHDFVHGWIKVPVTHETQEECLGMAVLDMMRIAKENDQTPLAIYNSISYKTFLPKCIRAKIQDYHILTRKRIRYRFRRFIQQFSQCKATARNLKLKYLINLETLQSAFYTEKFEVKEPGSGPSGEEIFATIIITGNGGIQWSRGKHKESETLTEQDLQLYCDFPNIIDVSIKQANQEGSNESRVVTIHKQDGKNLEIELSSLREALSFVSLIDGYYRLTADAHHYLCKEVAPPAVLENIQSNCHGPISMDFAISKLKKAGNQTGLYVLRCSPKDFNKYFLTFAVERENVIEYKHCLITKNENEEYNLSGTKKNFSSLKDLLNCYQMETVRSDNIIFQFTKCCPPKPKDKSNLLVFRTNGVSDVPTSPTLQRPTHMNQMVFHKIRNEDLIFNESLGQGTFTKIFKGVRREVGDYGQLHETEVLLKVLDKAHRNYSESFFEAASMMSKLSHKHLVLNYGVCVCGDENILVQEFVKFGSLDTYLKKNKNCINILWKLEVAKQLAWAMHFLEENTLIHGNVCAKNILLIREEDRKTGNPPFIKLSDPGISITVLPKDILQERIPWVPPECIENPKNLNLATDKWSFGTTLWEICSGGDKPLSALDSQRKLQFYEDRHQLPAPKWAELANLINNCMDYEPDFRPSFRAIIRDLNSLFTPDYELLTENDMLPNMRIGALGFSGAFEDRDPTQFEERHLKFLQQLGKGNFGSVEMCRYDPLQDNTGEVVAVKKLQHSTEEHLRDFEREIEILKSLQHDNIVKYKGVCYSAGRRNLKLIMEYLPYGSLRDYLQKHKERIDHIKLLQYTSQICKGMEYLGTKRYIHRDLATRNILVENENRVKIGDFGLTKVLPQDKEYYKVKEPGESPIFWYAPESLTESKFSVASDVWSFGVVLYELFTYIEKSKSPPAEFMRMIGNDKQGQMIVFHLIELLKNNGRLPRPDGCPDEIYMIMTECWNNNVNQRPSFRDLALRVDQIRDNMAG
Experimental: as §1

MEK2 = target: T1, MEK2 (Homo sapiens, UniProt P36507)
T1 construct: gene MAP2K2
Experimental: as §1

MELK = MELK (Homo sapiens, UniProt Q14680)
Experimental: as §1

MNK2 = target: T2, MNK2 (Homo sapiens, UniProt Q9HBH9)
T2 construct: gene MKNK2
Experimental: as §1

P38a/MAPK14 = P38a/MAPK14 (Homo sapiens, UniProt Q16539)
Experimental: as §1

PKCepsilon = target: T3, PKCepsilon (Homo sapiens, UniProt Q02156)
T3 construct: gene PRKCE
Experimental: as §1

STK33 = STK33 (Homo sapiens, UniProt Q9BYT3)
Experimental: as §1

TYK2 = TYK2 (Homo sapiens, UniProt P29597)
Chain of TYK2 (P29597 whole entry): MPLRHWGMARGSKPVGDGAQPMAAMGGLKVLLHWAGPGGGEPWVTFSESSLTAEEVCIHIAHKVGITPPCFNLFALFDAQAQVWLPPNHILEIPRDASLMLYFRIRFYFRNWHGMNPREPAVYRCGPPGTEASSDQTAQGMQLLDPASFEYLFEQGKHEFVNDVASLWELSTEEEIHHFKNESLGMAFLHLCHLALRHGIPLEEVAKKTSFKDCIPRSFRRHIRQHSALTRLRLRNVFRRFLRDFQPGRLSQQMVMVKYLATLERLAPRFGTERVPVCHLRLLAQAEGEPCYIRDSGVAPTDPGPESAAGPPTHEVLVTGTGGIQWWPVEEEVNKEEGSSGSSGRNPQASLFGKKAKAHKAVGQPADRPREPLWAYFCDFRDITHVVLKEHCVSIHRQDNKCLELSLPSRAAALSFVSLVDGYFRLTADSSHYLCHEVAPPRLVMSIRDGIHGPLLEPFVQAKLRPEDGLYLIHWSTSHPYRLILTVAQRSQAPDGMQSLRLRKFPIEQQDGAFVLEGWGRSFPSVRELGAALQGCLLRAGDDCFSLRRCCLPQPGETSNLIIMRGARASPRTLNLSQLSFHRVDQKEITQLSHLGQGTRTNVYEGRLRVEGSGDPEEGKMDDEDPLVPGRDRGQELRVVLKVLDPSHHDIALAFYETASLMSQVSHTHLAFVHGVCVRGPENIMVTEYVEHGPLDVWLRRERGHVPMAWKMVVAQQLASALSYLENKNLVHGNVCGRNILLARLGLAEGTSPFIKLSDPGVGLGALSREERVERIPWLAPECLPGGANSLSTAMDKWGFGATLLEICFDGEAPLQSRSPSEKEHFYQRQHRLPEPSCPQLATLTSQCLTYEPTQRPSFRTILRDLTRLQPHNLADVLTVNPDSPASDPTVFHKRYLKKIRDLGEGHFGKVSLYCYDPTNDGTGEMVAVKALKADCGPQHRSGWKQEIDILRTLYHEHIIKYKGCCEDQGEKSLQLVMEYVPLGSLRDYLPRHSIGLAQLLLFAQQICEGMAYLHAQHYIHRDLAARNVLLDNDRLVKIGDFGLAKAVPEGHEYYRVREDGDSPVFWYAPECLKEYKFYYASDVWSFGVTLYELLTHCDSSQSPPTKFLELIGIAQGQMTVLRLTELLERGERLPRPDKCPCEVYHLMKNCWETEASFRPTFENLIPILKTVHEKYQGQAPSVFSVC
Experimental: as §1

ULK3 = ULK3 (Homo sapiens, UniProt Q6PHR2)
Experimental: as §1

[1] = read-out: % Enzyme Activity (relative to DMSO controls) / TP-0005801 (0.3µM) / Data 1
[2] = read-out: % Enzyme Activity (relative to DMSO controls) / TP-0005801 (0.3µM) / Data 2

Compound `COc1cc(N2CCN(C)CC2)c(C)cc1Nc1ncc(Br)c(Nc2cccnc2N(C)C)n1` [TP-5801] has a remaining activity at 0.3 µM (ALK5/TGFBR1; [1]) of 88.1%, a remaining activity at 0.3 µM (ALK5/TGFBR1; [2]) of 88% and a remaining activity at 0.3 µM (CAMK1g; [1]) of 99%. The remaining activity at 0.3 µM (CAMK1g; [2]) was 97.4%, the remaining activity at 0.3 µM (CLK2; [1]) was 69.8% and the remaining activity at 0.3 µM (CLK2; [2]) was 68.6%. For the same compound, the remaining activity at 0.3 µM (COT1/MAP3K8; [1]) was 100%, the remaining activity at 0.3 µM (COT1/MAP3K8; [2]) was 97.5% and the remaining activity at 0.3 µM (EGFR; [1]) was 97.2%. For the same compound, the remaining activity at 0.3 µM (EGFR; [2]) was 96%, the remaining activity at 0.3 µM (GRK4; [1]) was 109% and the remaining activity at 0.3 µM (GRK4; [2]) was 108%. For the same compound, the remaining activity at 0.3 µM (GSK3a; [1]) was 97.1%, the remaining activity at 0.3 µM (GSK3a; [2]) was 95.8% and the remaining activity at 0.3 µM (HIPK4; [1]) was 79.6%. For the same compound, the remaining activity at 0.3 µM (HIPK4; [2]) was 78.6%, the remaining activity at 0.3 µM (JAK2; [1]) was 82.8% and the remaining activity at 0.3 µM (JAK2; [2]) was 77.7%. It also gave a remaining activity at 0.3 µM (MEK2; [1]) of 87.6%, a remaining activity at 0.3 µM (MEK2; [2]) of 87.4% and a remaining activity at 0.3 µM (MELK; [1]) of 93.1%. It also gave a remaining activity at 0.3 µM (MELK; [2]) of 90.3%, a remaining activity at 0.3 µM (MNK2; [1]) of 89.8% and a remaining activity at 0.3 µM (MNK2; [2]) of 89%. The remaining activity at 0.3 µM (P38a/MAPK14; [1]) was 89%, the remaining activity at 0.3 µM (P38a/MAPK14; [2]) was 88.1% and the remaining activity at 0.3 µM (PKCepsilon; [1]) was 93.6%. For the same compound, the remaining activity at 0.3 µM (PKCepsilon; [2]) was 93.3%, the remaining activity at 0.3 µM (STK33; [1]) was 32.4% and the remaining activity at 0.3 µM (STK33; [2]) was 31.5%. For the same compound, the remaining activity at 0.3 µM (TYK2; [1]) was 100%, the remaining activity at 0.3 µM (TYK2; [2]) was 96.7% and the remaining activity at 0.3 µM (ULK3; [1]) was 43.8%. The remaining activity at 0.3 µM (ULK3; [2]) was 40.1%.
